What was measured:
[1] = molecular target: T1, rat SST4 receptor (R-SST4) (Rattus norvegicus, UniProt P30937); test: radioligand competition, CHO-K1 membranes, […]-Tyr3-somatostatin-14; type: binding; conditions: read-out: Mean (±SEM) Ki values (nM) / R-SST4 receptor
T1 construct: gene Sstr4; H4 cells for cAMP

[2] = molecular target: T2, human somatostatin receptor type 2 (H-SST2) (Homo sapiens, UniProt P30874); test: as above; type: binding; conditions: read-out: Mean (±SEM) Ki values (nM) / H-SST2 receptor
T2 construct: gene SSTR2; stably expressed in CHO-K1, membranes from Perkin Elmer

[3] = molecular target: T3, human SST4 receptor (H-SST4) (Homo sapiens, UniProt P31391); test: LANCE cAMP, inhibition of forskolin-stimulated cAMP, H4 cells; type: cell-based; conditions: read-out: Mean (±SEM) IC50 values (nM) / H-SST4
T3 construct: gene SSTR4; H4 cells (Perkin Elmer) for cAMP

[4] = molecular target: T1, rat SST4 receptor (R-SST4); test: as above; type: cell-based; conditions: read-out: Mean (±SEM) IC50 values (nM) / R-SST4
Source text: LANCE cAMP, inhibition of forskolin-stimulated cAMP, H4 cells on rat SST4 receptor (R-SST4)

[5] = molecular target: T4, human somatostatin receptor type 1 (H-SST1) (Homo sapiens, UniProt P30872); test: radioligand competition, CHO-K1 membranes, […]-Tyr3-somatostatin-14; type: binding; conditions: read-out: Mean (±SEM) Ki values (nM) / H-SST1 receptor
T4 construct: gene SSTR1; stably expressed in CHO-K1, membranes from Perkin Elmer

[6] = molecular target: T3, human SST4 receptor (H-SST4); test: as above; type: binding; conditions: read-out: Mean (±SEM) Ki values (nM) / H-SST4 receptor
[7] = molecular target: T5, human somatostatin receptor type 3 (H-SST3) (Homo sapiens, UniProt P32745); test: as above; type: binding; conditions: read-out: Mean (±SEM) Ki values (nM) / H-SST3 receptor
T5 construct: gene SSTR3; stably expressed in CHO-K1, membranes from Perkin Elmer

[8] = molecular target: T6, human somatostatin receptor type 5 (H-SST5) (Homo sapiens, UniProt P35346); test: as above; type: binding; conditions: read-out: Mean (±SEM) Ki values (nM) / H-SST5 receptor
T6 construct: gene SSTR5; stably expressed in CHO-K1, membranes from Perkin Elmer; printed catalogue number ES-522-M400UA is the same as for type 3 (likely misprint)
T6 sequence (P35346 whole entry): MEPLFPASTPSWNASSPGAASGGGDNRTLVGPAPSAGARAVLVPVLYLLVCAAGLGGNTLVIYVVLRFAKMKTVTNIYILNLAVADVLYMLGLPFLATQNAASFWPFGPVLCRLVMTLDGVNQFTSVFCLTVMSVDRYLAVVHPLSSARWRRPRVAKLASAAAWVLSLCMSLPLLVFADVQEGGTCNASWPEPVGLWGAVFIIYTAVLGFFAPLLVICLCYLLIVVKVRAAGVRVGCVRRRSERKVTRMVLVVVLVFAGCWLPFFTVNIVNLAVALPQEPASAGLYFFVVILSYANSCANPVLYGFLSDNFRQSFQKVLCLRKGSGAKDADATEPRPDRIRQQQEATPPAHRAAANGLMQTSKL

T3 sequence (P31391 whole entry): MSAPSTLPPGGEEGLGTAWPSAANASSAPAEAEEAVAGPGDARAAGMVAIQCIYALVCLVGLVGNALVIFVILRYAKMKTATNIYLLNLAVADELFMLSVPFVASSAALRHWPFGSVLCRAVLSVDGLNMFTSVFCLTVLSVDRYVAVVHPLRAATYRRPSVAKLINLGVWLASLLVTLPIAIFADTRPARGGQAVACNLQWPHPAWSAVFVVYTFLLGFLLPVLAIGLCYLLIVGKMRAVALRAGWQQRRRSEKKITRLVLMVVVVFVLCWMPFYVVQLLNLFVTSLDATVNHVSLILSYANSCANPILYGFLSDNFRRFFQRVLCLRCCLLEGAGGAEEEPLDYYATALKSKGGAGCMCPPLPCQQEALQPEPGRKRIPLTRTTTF
T1 sequence (P30937 whole entry): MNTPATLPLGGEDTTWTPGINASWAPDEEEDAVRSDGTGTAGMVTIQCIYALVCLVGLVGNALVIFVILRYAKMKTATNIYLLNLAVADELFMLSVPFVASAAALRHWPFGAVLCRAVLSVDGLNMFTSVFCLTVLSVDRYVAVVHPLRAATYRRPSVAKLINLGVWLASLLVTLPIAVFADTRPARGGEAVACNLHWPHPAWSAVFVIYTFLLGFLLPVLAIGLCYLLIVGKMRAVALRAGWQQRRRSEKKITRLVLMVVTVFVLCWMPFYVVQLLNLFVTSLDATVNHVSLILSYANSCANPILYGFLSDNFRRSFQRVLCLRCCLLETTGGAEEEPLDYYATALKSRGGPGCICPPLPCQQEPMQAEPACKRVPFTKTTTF
T2 sequence (P30874 whole entry): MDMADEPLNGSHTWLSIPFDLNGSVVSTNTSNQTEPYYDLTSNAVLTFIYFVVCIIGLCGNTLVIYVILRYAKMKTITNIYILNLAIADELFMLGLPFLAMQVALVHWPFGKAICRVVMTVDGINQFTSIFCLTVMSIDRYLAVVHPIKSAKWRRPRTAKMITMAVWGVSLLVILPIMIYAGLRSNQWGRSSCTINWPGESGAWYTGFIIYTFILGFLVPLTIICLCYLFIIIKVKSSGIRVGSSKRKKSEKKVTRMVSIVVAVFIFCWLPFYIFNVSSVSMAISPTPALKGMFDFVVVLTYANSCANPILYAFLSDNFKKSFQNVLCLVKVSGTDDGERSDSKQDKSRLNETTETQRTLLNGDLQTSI
T4 sequence (P30872 whole entry): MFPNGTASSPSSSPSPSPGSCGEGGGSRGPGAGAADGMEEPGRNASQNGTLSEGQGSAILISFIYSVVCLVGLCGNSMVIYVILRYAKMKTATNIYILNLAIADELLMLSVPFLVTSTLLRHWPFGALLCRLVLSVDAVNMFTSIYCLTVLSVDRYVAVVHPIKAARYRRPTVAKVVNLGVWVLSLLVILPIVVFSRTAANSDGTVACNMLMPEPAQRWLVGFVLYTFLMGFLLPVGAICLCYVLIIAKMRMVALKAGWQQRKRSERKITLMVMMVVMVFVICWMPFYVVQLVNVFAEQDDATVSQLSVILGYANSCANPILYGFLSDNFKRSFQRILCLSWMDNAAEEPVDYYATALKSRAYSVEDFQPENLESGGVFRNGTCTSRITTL
T5 sequence (P32745 whole entry): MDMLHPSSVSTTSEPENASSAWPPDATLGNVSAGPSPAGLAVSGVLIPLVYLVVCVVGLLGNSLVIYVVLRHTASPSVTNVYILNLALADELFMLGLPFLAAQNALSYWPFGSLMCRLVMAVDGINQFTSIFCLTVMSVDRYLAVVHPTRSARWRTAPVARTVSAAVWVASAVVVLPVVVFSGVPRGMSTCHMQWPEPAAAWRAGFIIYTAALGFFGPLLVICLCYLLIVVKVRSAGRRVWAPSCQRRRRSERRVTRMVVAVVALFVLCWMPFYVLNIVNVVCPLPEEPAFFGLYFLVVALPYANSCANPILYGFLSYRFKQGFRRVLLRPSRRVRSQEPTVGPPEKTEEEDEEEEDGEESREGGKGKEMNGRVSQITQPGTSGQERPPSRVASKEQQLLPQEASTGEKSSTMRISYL

Ki [1]: 0.89 ± 0.64 nM | Ki [2]: 25100 nM | IC50 [3]: 0.05 ± 0.01 nM | IC50 [4]: 0.07 ± 0.005 nM | Ki [5]: 589 ± 266 nM | Ki [6]: 0.56 ± 0.1 nM | Ki [7]: 234 ± 112 nM | Ki [8]: 468 ± 156 nM
SMILES: Cc1ccc(S(=O)(=O)N[C@@H](CCN)C(=O)N[C@@H](Cc2ccccc2)C(N)=O)c2ccccc12 [J-2156, (1′S,2S)-4amino-N-(1′-carbamoyl-2′-phenylethyl)-2-(4″-methyl-1″-naphthalenesulfonylamino)butanamide]

Source: PMC5962878, “The Somatostatin Receptor-4 Agonist J-2156 Alleviates Mechanical Hypersensitivity in a Rat Model of Breast Cancer Induced Bone Pain” (Frontiers in Pharmacology, 2018)
